Measurements as given in patent US9839632B2, “Methods and compositions using 4-amino-2-(2,6-dioxo-piperidine-3-yl)-isoindoline-1,3-dione for treatment and management of central nervous system cancers” (CELGENE CORPORATION, priority 2013, dated 2017).
Like-named read-outs stand apart in the source and are kept apart here.

Key:
[1] = test system: U937 cells cocultured with OCI-LY10 lymphoma cells; assay: Polarization of U937 cocultured with OCI-LY10 lymphoma cells with or without YTS NK cells; format: cell-based, human; settings: for M2 polarization of U937 cells (FXIIIA, pSTAT6): coculture with OCI-LY10 lymphoma cells, without NK cells; for polarization status of U937 cells (iNOS, pSTAT1): triple culture with OCI-LY10 lymphoma cells and YTS NK cells, 10 ug/ml 48 hours
Experimental: (§1) Raji lymphoma cells (ATCC), U937 human monocyte cells (ATCC) and YTS NK cells (a gift from Dr. Pamela A. Becker) were cultured at 37° C. in a humidified incubator under 5% CO2 and 95% air in RPMI-1640 supplemented with 20% FCS and 1% penicillin-streptomycin, and 1% nonessential amino acids.
(§2) OCI-LY10 lymphoma cells (a gift from Arthur L. Shaffer III) were cultured at 37° C. in a humidified incubator under 5% CO2 and 95% air in IMDM supplemented with 20% FCS and 1% penicillin-streptomycin. Co-culture of lymphoma cells and U937 monocytes: Raji and U937 monocytes were cultured at 37° C. in a humidified incubator under 5% CO2 and 95% air in RPMI-1640 supplemented with 20% FCS and 1% penicillin-streptomycin, and 1% nonessential amino acids. OCI-LY10 and U937 monocytes were cultured at 37° C. in a humidified incubator under 5% CO2 and 95% air in IMDM supplemented with 20% FCS and 1% penicillin-streptomycin. Triple culture of lymphoma cells, U937 monocytes and YTS cells: Raji, U937 and YTS cells were cultured at 37° C. in a humidified incubator under 5% CO2 and 95% air in RPMI-1640 supplemented with 20% FCS and 1% penicillin-streptomycin, and 1% nonessential amino acids. OCI-LY10, U937 and YTS were cultured at 37° C. in a humidified incubator under 5% CO2 and 95% air in IMDM supplemented with 20% FCS and 1% penicillin-streptomycin.
(§3) Treatments: In experiments in which IL-4 was used to induce M2 polarization of macrophages, cells were treated with IL-4 (20 ng/ml) for 48 hours followed by treatment with 4-amino-2-(2,6-dioxo-piperidine-3-yl)-isoindoline-1,3-dione (10 ug/ml) or DMSO control for 48 hours. In triple cell culture experiments with lymphoma cells, macrophages, and NK cells, the treatment was with either DMSO or 4-amino-2-(2,6-dioxo-piperidine-3-yl)-isoindoline-1,3-dione (10 ug/ml) for 48 hours.
(§4) Immunofluorescence for analysis of macrophage polarization in cell culture experiments: Live cells were fixed in 10% formalin for 30 minutes at room temperature followed by permeabilization with PBS-0.2% Triton X-100 for 2 min. After blocking with PBS-5% goat serum-0.02% Triton X-100 for 30 minutes at 37° C., the cells were incubated overnight at 4° C. with rat monoclonal F4/80 antibody (for primary microglia cells, 1:200 Abcam), rat monoclonal CD11b (for U937, 1:200 Biolegend), rabbit polyclonal Ym1 antibody (for primary microglia cells and primary peritoneal macrophages, 1:200, Stemcell Technologies, Vancouver, Canada), rabbit polyclonal FXIII A antibody (for U937, 1:200, Abcam), mouse monoclonal p-STAT1 antibody (1:200, Abcam), rabbit polyclonal p-STAT6 antibody (1:200, Abcam) or rabbit iNOS antibody (1:200, Calbiochem). […]

[2] = fasted male CD-IGS rats, cited from earlier work; for F: PO 50 mg/kg vs IV 5 mg/kg
[3] = test system: U937 cells cocultured with Raji lymphoma cells; assay: Polarization of U937 cocultured with Raji lymphoma cells with or without YTS NK cells; format: cell-based, human; settings: for M2 polarization of U937 cells (FXIIIA, pSTAT6): coculture with Raji lymphoma cells, without NK cells; for polarization status of U937 cells (iNOS, pSTAT1): triple culture with Raji lymphoma cells and YTS NK cells, 10 ug/ml 48 hours
Experimental: as §1, §2, §3, §4

human monocyte U937 = assay: Polarization of IL4-treated human monocyte U937 (immunofluorescence); format: cell-based; settings: U937, IL-4 20 ng/ml 48 hours then 10 ug/ml 48 hours
Experimental: as §1, §3
Immunofluorescence for analysis of macrophage polarization in cell culture experiments: Live cells were fixed in 10% formalin for 30 minutes at room temperature followed by permeabilization with PBS-0.2% Triton X-100 for 2 min. […]

[4] = test system: macrophages and NK cells in the CNS lymphoma microenvironment; assay: Immunohistochemistry/immunofluorescence of CNS lymphoma microenvironment, OCI-LY10 model; format: in vivo, athymic mice; settings: P<0.05 vs control
Excerpt: Immunohistochemistry (“IHC”) assessment for macrophages: Paraffin sections (10 μm thick) were fixed, blocked, and immunostained with the appropriate antibody: Iba-1 (BD Biosciences) for macrophages, Ym1 (Stemcell Technologies) as a marker for M2 polarization, iNOS (Calbiochem) as a marker for M1 polarization. Aperio ScanScope XT slide scanner and image analysis system (Aperio Spectrum, Vista, Calif.) were used for quantitative assessment of macrophages. Three equal-size (0.4 mM2) fields in macrophage-dense areas were selected in the contralateral brain and the tumor for counting. Data were shown as an average of the three fields.
Immunofluorescence for natural killer cells: Frozen sections (10 μm thick) were permeabilized with PBS-0.2% Triton X-100 for 5 min. After blocking with PBS-5% goat serum-0.02% Triton X-100 for 45 mins at 37° C., the sections were incubated overnight at 4° C. with Rat monoclonal CD335 antibody (a marker for NK cells, 1:200, Biolegend). After washing, sections were incubated with the Alexa Fluor 594 Goat anti-Rat IgG secondary antibody (1:1000, Life Technologies) at 37° C. for 1.5 h. Finally, Vectashield H-1200 mounting medium with DAPI (Vector Laboratories) was used to stain the nuclei. Images were obtained on a Zeiss LSM 510 META confocal microscope. Six equal-size (0.2 mM^2) fields in NK-dense areas were selected in the tumor for taking pictures. Fluorescence intensity data were generated by Zeiss LSM 510 and shown as an average of six fields.
Statistical analysis: One-way ANOVA was used to compare the difference between the groups at each time point. Two-way repeated measures ANOVA was used to analyze the interaction between the time and treatment. Survival analysis was performed by Kaplan Meier method. Kaplan Meier survival curves were generated using Prism4 software and the statistical difference between curves was derived with a log-rank test. P<0.05 was considered significant.

[5] = listed as 4-amino-2-(2,6-dioxo-piperidine-3-yl)-isoindoline-1,3-dione

For `Nc1cccc2c1C(=O)N(C1CCC(=O)NC1=O)C2=O` (stereo not shown) [Pomalidomide, 4-amino-2-(2,6-dioxo-piperidine-3-yl)-isoindoline-1,3-dione], the “M2 polarization of U937 cells (FXIIIA, pSTAT6)” value (“M2 polarization of U937 cells” for short) [1] was “reversed”, the “M2 polarization of U937 cells” value [1, 5] was “prevented the M2 polarization of macrophages but did not induce them into M1 polarization” and the “polarization status of U937 cells (iNOS, pSTAT1)” value (from here on “polarization status of U937 cells”) [1] was “from M2 to M1”. For the same compound, the “polarization status of U937 cells” value [1, 5] was “became M1-polarized”, the F [2] was 47.4% and the F ([2]; listed as CC-4047) was 47.4 ± 15.2%. The “AUC(0-inf)” value ([2]; single IV 5 mg/kg, n = 5) was 7016 ± 1551 ng·h/mL, the CL ([2]; single IV 5 mg/kg, n = 5) was 12.3 mL/min/kg and the T1/2 ([2]; single IV 5 mg/kg, n = 5) was 2.44 ± 0.8 h. For the same compound, the Vss ([2]; single IV 5 mg/kg, n = 5) was 1.75 L/kg, the “AUC(0-24)” value ([2]; single PO 50 mg/kg, n = 4) was 33155 ± 8561 ng·h/mL and the Cmax ([2]; single PO 50 mg/kg, n = 4) was 3372 ± 758 ng/mL. The Tmax ([2]; single PO 50 mg/kg, n = 4) was 2.0 ± 0.0 h, the “M2 polarization of U937 cells” value [3] was “reversed” and the “M2 polarization of U937 cells” value [3, 5] was “prevented the M2 polarization of macrophages but did not induce them into M1 polarization”. The “polarization status of U937 cells” value [3] was “from M2 to M1”, the “polarization status of U937 cells” value [3, 5] was “became M1-polarized” and the “polarization status (FXIII A, pSTAT6 vs iNOS, pSTAT1 expression)” value (human monocyte U937) was “from M2 to M1”. The “CD335 positive NK cells in CNS tumors” value [4] was “significantly increased”, the “Ym1 expression (M2-polarized macrophages) in tumor” value [4] was “significantly decreased” and the “iNOS activity (M1-polarized macrophages) in tumor” value [4] was “increased”. The “CD335 positive NK cells in CNS tumors” value [4, 5] was “significant increase”, the “Ym1 expression (M2-polarized macrophages) in tumor” value [4, 5] was “significant decrease” and the “iNOS activity (M1-polarized macrophages) in tumor” value [4, 5] was “significant increase”. For the same compound, the “brain macrophages (Iba-1 positive cells)” value ([4]; contralateral brain and tumor) was “significantly increased”.
